Results: US20230009626A1 (ICHNOS SCIENCES S.A., priority 2018, published 2023)

Target: HPK1 (MAP4K1) (Homo sapiens, UniProt Q92918)
Assay: FRET Assay for HPK1 (MAP4K1): one step binding assay, displacement of labeled tracer
Conditions: for inhibition at 1 µM: 1 μM compound; for inhibition at 1 µM / inhibition at 10 µM: FRET ratio 665/620, percent of control; for inhibition at 10 µM: 10 μM compound; for IC50: dose response curve, nonlinear regression
Procedure, shortened: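 Percent inhibition at 1.0 and 10.0 μM and IC50 by nonlinear regression were derived from loss of FRET signal versus control. The signal runs from Eu-anti-GST antibody (4 nM) bound to 10 nM HPK1 kinase to Alexa Fluor 647 Kinase Tracer 222 (20 nM), added after a 15-min on-ice compound pre-incubation. Binding then proceeded 1 h at room temperature in HEPES pH 7.5 buffer with 10 mM MgCl2, 1 mM EGTA, 0.01% Brij-35 and 3% DMSO.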

Sequence of HPK1 (MAP4K1) (Q92918 whole entry): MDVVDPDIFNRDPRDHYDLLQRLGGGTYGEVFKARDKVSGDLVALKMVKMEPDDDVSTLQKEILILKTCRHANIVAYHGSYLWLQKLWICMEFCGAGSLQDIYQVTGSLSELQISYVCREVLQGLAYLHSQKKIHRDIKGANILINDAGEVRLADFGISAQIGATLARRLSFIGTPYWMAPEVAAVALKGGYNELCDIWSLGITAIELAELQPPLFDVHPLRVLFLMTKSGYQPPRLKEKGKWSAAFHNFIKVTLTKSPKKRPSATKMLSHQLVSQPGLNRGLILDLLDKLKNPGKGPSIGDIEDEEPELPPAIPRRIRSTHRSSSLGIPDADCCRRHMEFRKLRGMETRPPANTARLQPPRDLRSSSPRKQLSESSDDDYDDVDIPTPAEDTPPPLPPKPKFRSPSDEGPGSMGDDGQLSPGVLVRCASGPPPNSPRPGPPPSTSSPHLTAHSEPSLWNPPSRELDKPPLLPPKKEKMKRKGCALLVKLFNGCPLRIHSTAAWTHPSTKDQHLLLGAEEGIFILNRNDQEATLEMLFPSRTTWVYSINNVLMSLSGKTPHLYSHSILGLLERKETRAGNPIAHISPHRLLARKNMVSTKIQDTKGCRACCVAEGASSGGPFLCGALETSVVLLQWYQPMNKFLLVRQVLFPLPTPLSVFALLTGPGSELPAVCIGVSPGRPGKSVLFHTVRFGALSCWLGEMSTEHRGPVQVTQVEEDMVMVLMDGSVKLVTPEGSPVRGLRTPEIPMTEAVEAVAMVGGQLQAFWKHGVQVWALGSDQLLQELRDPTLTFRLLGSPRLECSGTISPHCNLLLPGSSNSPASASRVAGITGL

Row | inhibition at 1 µM | inhibition at 10 µM | IC50 | Compound
1 | 74.5% | 83.4% | < 50 nM | C/C(Nc1ccn(CC2CC2)n1)=C1/C(=O)Nc2cnc(-c3cnccc3C)cc21 [Example 103, (Z)-3-(1-((1-(Cyclopropylmethyl)-1H-pyrazol-3-yl)amino)ethylidene)-5-(4-methylpyridin-3-yl)-1H-pyrrolo[2,3-c]pyridin-2(3H)-one]
2 | 74.6% | 79.8% | < 50 nM | C/C(Nc1ccn(CC(C)(C)O)n1)=C1/C(=O)Nc2cnc(-c3cnccc3C)cc21 [Example 104, (Z)-3-(1-((1-(2-Hydroxy-2-methylpropyl)-1H-pyrazol-3-yl)amino)ethylidene)-5-(4-methylpyridin-3-yl)-1H-pyrrolo[2,3-c]pyridin-2(3H)-one]
3 | 79.8% | 84.4% | < 50 nM | C/C(Nc1cnn(C(C)(C)C#N)c1)=C1/C(=O)Nc2ccc(-c3cnccc3C)nc21 [Example 105, (Z)-2-Methyl-2-(4-((1-(5-(4-methylpyridin-3-yl)-2-oxo-1H-pyrrolo[3,2-b]pyridin-3(2H)-ylidene)ethyl)amino)-1H-pyrazol-1-yl)propanenitrile]
4 | 80% | 92.4% | < 50 nM | C/C(Nc1ccn(C(C)(C)C#N)n1)=C1/C(=O)Nc2cnc(-c3cncc(N)c3C)cc21 [Example 106, (Z)-2-(3-((1-(5-(5-Amino-4-methylpyridin-3-yl)-2-oxo-1H-pyrrolo[2,3-c]pyridin-3(2H)-ylidene)ethyl)amino)-1H-pyrazol-1-yl)-2-methylpropanenitrile]
5 | 72.3% | 80% | < 50 nM | C/C(Nc1ccc(N2CCOCC2)cn1)=C1/C(=O)Nc2cnc(-c3cnccc3C)cc21 [Example 107, (Z)-5-(4-Methylpyridin-3-yl)-3-(1-((5-morpholinopyridin-2-yl)amino)ethylidene)-1H-pyrrolo[2,3-c]pyridin-2(3H)-one]
6 | 74.2% | 77% | < 50 nM | COc1cccc(F)c1-c1cc2c(cn1)NC(=O)/C2=C(/C)Nc1ccc(N2CCNCC2)cc1 [Example 108, (Z)-5-(2-Fluoro-6-methoxyphenyl)-3-(1-((4-(piperazin-1-yl)phenyl)amino)ethylidene)-1H-pyrrolo[2,3-c]pyridin-2(3H)-one]
7 | 72.4% | 83.4% | < 50 nM | C/C(Nc1ccc(N(C)C)nc1)=C1/C(=O)Nc2cnc(-c3cnccc3C)cc21 [Example 109, (Z)-3-(1-((6-(Dimethylamino)pyridin-3-yl)amino)ethylidene)-5-(4-methylpyridin-3-yl)-1H-pyrrolo[2,3-c]pyridin-2(3H)-one]
8 | 74.4% | 74.3% | < 50 nM | C/C(Nc1ccn(CCC(C)(C)O)n1)=C1/C(=O)Nc2cnc(-c3cnccc3C)cc21 [Example 111]
9 | 73.3% | 75.9% | < 50 nM | CNC(=O)Cn1ccc(N/C(C)=C2\C(=O)Nc3cnc(-c4cnccc4C)cc32)n1 [Example 114]
10 | 54.8% | 56.4% | – | COc1cccc(F)c1-c1cc2c(cn1)NC(=O)/C2=C(/C)Nc1ccc(N(C)C)nc1 [Example 117, (Z)-3-(1-((6-(Dimethylamino)pyridin-3-yl)amino)ethylidene)-5-(2-fluoro-6-methoxyphenyl)-1H-pyrrolo[2,3-c]pyridin-2(3H)-one]
11 | 78.4% | 83.3% | < 50 nM | CNC(=O)C(C)(C)n1ccc(N/C(C)=C2\C(=O)Nc3cnc(-c4cnccc4C)cc32)n1 [Example 118, (Z)-N,2-dimethyl-2-(3-((1-(5-(4-methylpyridin-3-yl)-2-oxo-1H-pyrrolo[2,3-c]pyridin-3(2H)-ylidene)ethyl)amino)-1H-pyrazol-1-yl)propanamide]
12 | 52.6% | 67% | > 500 nM | C/C(Nc1c(C)nn(C)c1C)=C1/C(=O)Nc2cnc(-c3cnccc3C)cc21 [Example 119, (Z)-5-(4-Methylpyridin-3-yl)-3-(1-((1,3,5-trimethyl-1H-pyrazol-4-yl)amino)ethylidene)-1H-pyrrolo[2,3-c]pyridin-2(3H)-one]
13 | 2.17% | 49% | – | CC(=O)N1CC(n2ccc(N/C(C)=C3\C(=O)Nc4cnc(-c5cnccc5C)cc43)n2)C1 [Example 120, (Z)-3-(1-((1-(1-Acetylazetidin-3-yl)-1H-pyrazol-3-yl)amino)ethylidene)-5-(4-methylpyridin-3-yl)-1H-pyrrolo[2,3-c]pyridin-2(3H)-one]
14 | 78.9% | 85.7% | < 50 nM | C/C(Nc1ccn(C)n1)=C1/C(=O)Nc2cnc(-c3c(C)cccc3F)cc21 [Example 121, (Z)-5-(2-Fluoro-6-methylphenyl)-3-(1-((1-methyl-1H-pyrazol-3-yl)amino)ethylidene)-1H-pyrrolo[2,3-c]pyridin-2(3H)-one]
15 | 87.3% | 92.6% | < 50 nM | C/C(Nc1cc[nH]n1)=C1/C(=O)Nc2cnc(-c3cnccc3C)cc21 [Example 122, (Z)-3-(1-((1H-Pyrazol-3-yl)amino)ethylidene)-5-(4-methylpyridin-3-yl)-1H-pyrrolo[2,3-c]pyridin-2(3H)-one]
16 | 81.8% | 88.2% | < 50 nM | C/C(Nc1ccc(C)nc1)=C1/C(=O)Nc2cnc(-c3cnccc3C)cc21 [Example 123, (Z)-5-(4-Methylpyridin-3-yl)-3-(1-((6-methylpyridin-3-yl)amino)ethylidene)-1H-pyrrolo[2,3-c]pyridin-2(3H)-one]
17 | 79.6% | 89.7% | < 50 nM | COc1cccc(F)c1-c1cc2c(cn1)NC(=O)/C2=C(/C)Nc1ccc(N2CCNCC2)cn1 [Example 124, (Z)-5-(2-Fluoro-6-methoxyphenyl)-3-(1-((5-(piperazin-1-yl)pyridin-2-yl)amino)ethylidene)-1H-pyrrolo[2,3-c]pyridin-2(3H)-one]
18 | 77.7% | 84.2% | < 50 nM | COc1cccc(F)c1-c1cc2c(cn1)NC(=O)/C2=C(/C)Nc1ccc(N2CCNCC2)nc1 [Example 125, (Z)-5-(2-Fluoro-6-methoxyphenyl)-3-(1-((6-(piperazin-1-yl)pyridin-3-yl)amino)ethylidene)-1H-pyrrolo[2,3-c]pyridin-2(3H)-one]
19 | 82.4% | – | < 50 nM | C/C(Nc1cc2n(n1)CC(=O)N(C)C2)=C1/C(=O)Nc2cnc(-c3cnccc3C)cc21 [Example 126, (Z)-5-Methyl-2-((1-(5-(4-methylpyridin-3-yl)-2-oxo-1H-pyrrolo[2,3-c]pyridin-3(2H)-ylidene)ethyl)amino)-4,5-dihydropyrazolo[1,5-a]pyrazin-6(7H)-one]
20 | 75.1% | 81.5% | < 50 nM | C/C(Nc1cc2n(n1)CCN(C)C2=O)=C1/C(=O)Nc2cnc(-c3cnccc3C)cc21 [Example 127, (Z)-5-Methyl-2-((1-(5-(4-methylpyridin-3-yl)-2-oxo-1H-pyrrolo[2,3-c]pyridin-3(2H)-ylidene)ethyl)amino)-6,7-dihydropyrazolo[1,5-a]pyrazin-4(5H)-onc]
21 | 79.2% | 89.8% | < 50 nM | C/C(Nc1ccn(CC(=O)N(C)C)n1)=C1/C(=O)Nc2cnc(-c3cnccc3C)cc21 [Example 128, (Z)-N,N-Dimethyl-2-(3-((1-(5-(4-methylpyridin-3-yl)-2-oxo-1H-pyrrolo[2,3-c]pyridin-3(2H)-ylidene)ethyl)amino)-1H-pyrazol-1-yl)acetamide]
22 | 76.4% | 82.2% | < 50 nM | C/C(Nc1cc(C)n(C)n1)=C1/C(=O)Nc2cnc(-c3cnccc3C)cc21 [Example 129, (Z)-3-(1-((1,5-dimethyl-1H-pyrazol-3-yl)amino)ethylidene)-5-(4-methylpyridin-3-yl)-1H-pyrrolo[2,3-c]pyridin-2(3H)-one]
23 | 79.4% | 84.8% | < 50 nM | CC(=O)N1CCC(n2ccc(N/C(C)=C3\C(=O)Nc4cnc(-c5cnccc5C)cc43)n2)CC1 [Example 130, (Z)-3-(1-((1-(1-Acetylpiperidin-4-yl)-1H-pyrazol-3-yl)amino)ethylidene)-5-(4-methylpyridin-3-yl)-1H-pyrrolo[2,3-c]pyridin-2(3H)-one]
24 | 82.2% | 83.7% | < 50 nM | C/C(Nc1ccn(CC(=O)N2CCOCC2)n1)=C1/C(=O)Nc2cnc(-c3cnccc3C)cc21 [Example 131, (Z)-5-(4-Methylpyridin-3-yl)-3-(1-((1-(2-morpholino-2-oxoethyl)-1H-pyrazol-3-yl)amino)ethylidene)-1H-pyrrolo[2,3-c]pyridin-2(3H)-one]
25 | 81% | 80.9% | 100 to 500 nM | C/C(Nc1cc(C)nn1C)=C1/C(=O)Nc2cnc(-c3cnccc3C)cc21 [Example 132, (Z)-3-(1-((1,3-Dimethyl-1H-pyrazol-5-yl)amino)ethylidene)-5-(4-methylpyridin-3-yl)-1H-pyrrolo[2,3-c]pyridin-2(3H)-one]
26 | 79.9% | 88% | < 50 nM | C/C(Nc1ccn(C[C@H](C)O)n1)=C1/C(=O)Nc2cnc(-c3cnccc3C)cc21 [Example 133, (S,Z)-3-(1-((1-(2-Hydroxypropyl)-1H-pyrazol-3-yl)amino)ethylidene)-5-(4-methylpyridin-3-yl)-1H-pyrrolo[2,3-c]pyridin-2(3H)-one]
